Results from publication PMC8778984 (Pharmaceutics, 2021).
Entries after “also recorded” stand apart in the source; their conditions may differ. Read-outs that look alike come from different tables or passages of the source.

Legend:
[1] = biological target: T1, DHFR (dihydrofolate reductase), partially purified from chicken liver (Gallus gallus, UniProt P00378); experiment: Cell-free enzymatic assay for DHFR (NADPH oxidation, absorbance at 340 nm); format: biochemical; conditions: for % Inhibition relative to MTX: DHFR inhibitory potency relative to MTX
T1 construct: Fresh chicken liver (20 g) was cut into pieces, homogenized in 0.1 M MnCl2 and centrifuged; from tissue; host or cells: chicken liver
T1 sequence (P00378 1-189): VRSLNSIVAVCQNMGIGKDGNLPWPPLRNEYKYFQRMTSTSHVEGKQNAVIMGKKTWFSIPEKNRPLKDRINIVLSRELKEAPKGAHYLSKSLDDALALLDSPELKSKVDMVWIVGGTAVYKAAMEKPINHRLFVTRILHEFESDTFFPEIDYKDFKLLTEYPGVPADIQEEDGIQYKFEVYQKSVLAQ
Protocol: This was carried out by the procedure of Kaufman and Kemerer with some modifications: Fresh chicken liver (20 g) was cut into pieces, homogenized in 0.1 M MnCl2 and centrifuged. The supernatant was brought to pH 5–6 with HCl, and ZnSO4 was added gradually to obtain a final concentration of 20 mM. The pH was elevated to pH 7.5–8 by the addition of solid NaHCO3. […] The proteins that remained in the supernatant were precipitated with 4.54 M ammonium sulfate. The precipitate was then dissolved in 50 mM Tris-HCl (pH 7.5) containing 0.1 M KCl and dialyzed for two days against the same buffer, and then frozen in aliquots at −80 °C until used.
(§1) The assay was based on DHFR-dependent reduction of dihydrofolate to tetrahydrofolate. In this process, NADPH is oxidized to NADP, and the extent of the oxidation is monitored by the decrease in absorbance at 340 nm. Tubes containing 1.0 mL each of 0.05 M Tris-HCl buffer (pH 7.5) 0.5 M KCl, 0.137 mM NADPH, and 0.187 mM DHF were incubated for 1 h at 25 °C in the absence and the presence of partially purified DHFR (35 µg/mL) and increasing concentrations of MTX or its derivatives. The absorbance at 340 nm was then monitored.
Figure 1 Inhibition of dihydrofolate reductase by MTX and MTX analogues. The indicated concentrations of MTX and its derivatives were analyzed for their potencies to inhibit the reduction of dihydrofolate to tetrahydrofolate by DHFR. In this process, NADPH is oxidized to NADP and the extent of this oxidation is monitored by the decrease in absorbance at 340 nm (experimental section).

[2] = biological target: T2, DHFR (dihydrofolate reductase) (Gallus gallus, UniProt P00378); experiment: Reactivation of BSA–MTX analogues by DTT, GSH or L-cysteine, read out as DHFR inhibitory potency; format: biochemical, chicken; conditions: for Fold Reactivation by DTT: 2 mM DTT (dithiothreitol); for reactivation by glutathione and L-cysteine (in words): GSH or L-cysteine at concentrations of 100 μM or lower; for % Activity Relative to MTX: Table 2, + 2 mM DTT
T2 construct: Fresh chicken liver (20 g) was cut into pieces, homogenized in 0.1 M MnCl2 and centrifuged; from tissue; host or cells: chicken liver
T2 sequence (P00378 1-189): T1 sequence (P00378 1-189)
Protocol: as §1
A solution of BSA–GSSG–MTX (50 μM in 0.1 M HEPES buffer, pH 7.4, 130 mM NaCl) was divided into plastic tubes (1.0 mL/tube) and incubated for 2 h at 25 °C in the absence and the presence of 2 mM DTT and the indicated concentrations of either GSH or L-cysteine. Samples were then analyzed for their DHFR inhibitory potencies and the IC50 values were determined. Results are expressed as percent of maximal reactivation (obtained by preincubation with 2 mM DTT). Each point is the arithmetic mean of n = 4 tubes ± SEM.

cancer cell lines = experiment: Antiproliferative efficacy in the cancer cell lines (unpublished results); format: cell-based
U251 human glioma cells = experiment: Growth inhibition, MTT viability assay, U251 cells; format: cell-based; conditions: for antiproliferative potency compared with MTX (in words): MTX-insensitive glioma cell line U251, 48 h MTT; for antiproliferative potency, BSA–S–S–MTX compared with BSA–(CH2)6–MTX (in words): insensitive glioma cell line U251
Protocol: (§2) In this study, we used two glioma cell lines: (i) CNS-1; rat glioma; (ii) U251; human glioma. Cells were a generous gift from Dr. Yael Mardor from the Sheba Medical Center, Israel.
(§3) Cancer cell lines were grown in monoculture in 96-well plates in RPMI (CNS-1 cells) or DMEM containing 10% fetal bovine serum, 2 mM L-glutamine, penicillin (100 units/mL), and streptomycin (0.1 mg/mL) under humidified atmosphere containing 5% CO2. […] Cell viability was measured after 48 h using a standard MTT (3-(4,5-dimethylthiazol-2-yl)-2,5-diphenyltetrazolium bromide) assay, as described before.

[3] = Maleimide–thiol exchange assay (incubation with GSH, dialysis, absorbance at 372 nm); format: physicochemical
Protocol: BSA–S–MAL–(CH2)3–CONH–MTX (0.2 mM) was dissolved in 1.0 mL 0.1 M HEPES, pH 7.3, and transferred to a tube containing 7.5 mg GSH corresponding to […] which are 100 molar excess over the conjugate. The solution was incubated for 7 h at 37 °C, followed by extensive dialysis and lyophilization. Absorbance was read at 372 nm.

CNS-1 rat glioma cells = experiment: Growth inhibition, MTT viability assay, CNS-1 cells; format: cell-based; conditions: for inhibition compared with MTX (in words): CNS-1 (Figure 4B), at 10 µM, to a lesser extent at 1 µM; for antiproliferative potency compared with MTX (in words): MTX-sensitive cell line CNS-1, 48 h MTT; for antiproliferative potency, BSA–S–S–MTX compared with BSA–(CH2)6–MTX (in words): sensitive glioma cell line CNS-1
Protocol: as §2, §3

[4] = design: method as in printed; conditions: ref not given, cited from earlier work
glioma cell lines = conditions: read-out: average EC50; variety of glioma cell lines, large variation among lines; cited from earlier work
[5] = Table 2, without DTT, read-out: DHFR Inhibitory Potency (IC50)
[6] = Table 1, 1 h at 25 °C, 0.137 mM NADPH, 0.187 mM DHF, read-out: IC50

BSA–S–MAL–(CH2)3–CO–NH–GSSG–NH^γCO–MTX [BSA–GSSG–MTX]
% Activity Relative to MTX ([1]; Table 2, without DTT): 3.14%
IC50 [1, 5]: 1750 ± 120 nM
Fold Reactivation by DTT [2]: 5.16 fold
reactivation by glutathione and L-cysteine (in words) [2]: do not reactivate
% Activity Relative to MTX [2]: 16.2%
reactivation of DHFR inhibitory potency by GSH and cysteine (in words) ([2]; cell-free state): highly effective in reactivating
antiproliferative efficacy (in words) (cancer cell lines): low antiproliferative efficacy

BSA–S–MAL–(CH2)3–CONH–(CH2)6–NH^γCO–MTX [BSA–(CH2)6–MTX]
% Activity Relative to MTX ([1]; Table 2, without DTT): 7.0%
IC50 [1, 5]: 790 ± 30 nM
antiproliferative potency compared with MTX (in words) (U251 human glioma cells): significantly more potent
antiproliferative potency, BSA–S–S–MTX compared with BSA–(CH2)6–MTX (in words) (U251 human glioma cells): essentially equipotent
maleimide–thiol exchange (in words) ([3]; 100-fold molar excess of GSH, 7 h, pH 7.3, 37 °C, listed as BSA–S–MAL–(CH2)3–CONH–MTX): did not undergo significant maleimide–thiol exchange; also recorded: such exchange does not occur
Absorbance at 372 nm per mg Protein ([3]; Control (no GSH)): 0.479 ± 0.03
Absorbance at 372 nm per mg Protein ([3]; GSH, 100 molar excess, 7 h, 37 °C, pH 7.3, then dialysis): 0.487 ± 0.03
cleavage of the spacer peptide bond (in words) ([3]; neutral pH): not cleaved
inhibition compared with MTX (in words) (CNS-1 rat glioma cells): significantly more inhibitory than MTX
antiproliferative potency compared with MTX (in words) (CNS-1 rat glioma cells): less potent than MTX
antiproliferative potency, BSA–S–S–MTX compared with BSA–(CH2)6–MTX (in words) (CNS-1 rat glioma cells): essentially equipotent

CN(Cc1cnc2nc(N)nc(N)c2n1)c1ccc(C(=O)NC(CCC(=O)NCCSSCCN)C(=O)O)cc1 (centres unmarked) [MTX–dicystamine, MTX–CONH–(CH2)2–S–S–(CH2)2–NH2]
IC50 [1, 6]: 110 ± 12 nM
% Inhibition relative to MTX ([1]; Table 1): 50%

CN(Cc1cnc2nc(N)nc(N)c2n1)c1ccc(C(=O)NC(CCC(=O)NCCS)C(=O)O)cc1 (centres unmarked) [MTX–cystamine, MTX–CONH–(CH2)2–SH]
IC50 [1, 6]: 340 ± 11 nM
% Inhibition relative to MTX ([1]; Table 1): 16.2%

CN(Cc1cnc2nc(N)nc(N)c2n1)c1ccc(C(=O)N[C@@H](CCC(=O)O)C(=O)O)cc1 [Methotrexate, reference compound]
EC50 (U251 human glioma cells; Homo sapiens, U-251, U251, 48 h, MTT, read-out: EC50 (concentration needed to obtain 50% of viable cells relative to untreated cells)): ~10000 nM
Emax (U251 human glioma cells; Homo sapiens, U-251, U251, at ~10 µM, within 48 h, read-out: maximum effect): 49%
viability in comparison to nontreated cells (CNS-1 rat glioma cells; CNS-1, at maximal effect, 48 h): 36%
EC50 (CNS-1 rat glioma cells; Rattus norvegicus, Glioma cell, CNS-1, 48 h, MTT, read-out: EC50 (concentration needed to obtain 50% of viable cells relative to untreated cells)): ~70 nM
Emax (CNS-1 rat glioma cells; Rattus norvegicus, Glioma cell, CNS-1, within 48 h, read-out: maximal effect): 64%
pKa ([4]; α-carboxylate): ~ 2.1
pKa ([4]; γ-carboxylate): ~ 4.1
EC50 (glioma cell lines): 2400 nM

BSA–S–MAL–(CH2)3–CONH–(CH2)2–S–S–(CH2)2–NH^γCO–MTX [BSA–S–S–MTX]
% Activity Relative to MTX ([1]; Table 2, without DTT): 2.0%
IC50 [1, 5]: 2750 ± 200 nM
antiproliferative potency compared with MTX (in words) (U251 human glioma cells): significantly more potent
antiproliferative potency, BSA–S–S–MTX compared with BSA–(CH2)6–MTX (in words) (U251 human glioma cells): slightly less potent than BSA–(CH2)6–MTX; also recorded: essentially equipotent
Fold Reactivation by DTT [2]: 7.05 fold
reactivation by GSH (in words) ([2]; GSH at a concentration of 1 mM or higher): reactivated
reactivation by glutathione and L-cysteine (in words) [2]: do not reactivate
% Activity Relative to MTX [2]: 14.1%
inhibition compared with MTX (in words) (CNS-1 rat glioma cells): significantly more inhibitory than MTX
antiproliferative potency compared with MTX (in words) (CNS-1 rat glioma cells): less potent than MTX
antiproliferative potency, BSA–S–S–MTX compared with BSA–(CH2)6–MTX (in words) (CNS-1 rat glioma cells): slightly less potent than BSA–(CH2)6–MTX; also recorded: essentially equipotent

CN(Cc1cnc2nc(N)nc(N)c2n1)c1ccc(C(=O)N[C@@H](CCC(=O)NCCCCCCN)C(=O)O)cc1 [MTX–hexylamine, MTX–CONH–(CH2)6–NH2]
IC50 [1, 6]: 80 ± 4 nM
% Inhibition relative to MTX ([1]; Table 1): 69%
% of the DHFR inhibitory potency of MTX ([1]; running text and scheme legend): 69%
